{"source": "ChEMBL document CHEMBL1153065", "about": "“Synthesis, radiolabeling and preliminary in vivo evaluation of [18F]FE-PE2I, a new probe for the dopamine transporter” (Bioorg Med Chem Lett, 2009)", "key": {"[1]": {"target": "Sodium-dependent dopamine transporter (Rattus norvegicus, UniProt P23977)", "sequence (P23977 whole entry)": "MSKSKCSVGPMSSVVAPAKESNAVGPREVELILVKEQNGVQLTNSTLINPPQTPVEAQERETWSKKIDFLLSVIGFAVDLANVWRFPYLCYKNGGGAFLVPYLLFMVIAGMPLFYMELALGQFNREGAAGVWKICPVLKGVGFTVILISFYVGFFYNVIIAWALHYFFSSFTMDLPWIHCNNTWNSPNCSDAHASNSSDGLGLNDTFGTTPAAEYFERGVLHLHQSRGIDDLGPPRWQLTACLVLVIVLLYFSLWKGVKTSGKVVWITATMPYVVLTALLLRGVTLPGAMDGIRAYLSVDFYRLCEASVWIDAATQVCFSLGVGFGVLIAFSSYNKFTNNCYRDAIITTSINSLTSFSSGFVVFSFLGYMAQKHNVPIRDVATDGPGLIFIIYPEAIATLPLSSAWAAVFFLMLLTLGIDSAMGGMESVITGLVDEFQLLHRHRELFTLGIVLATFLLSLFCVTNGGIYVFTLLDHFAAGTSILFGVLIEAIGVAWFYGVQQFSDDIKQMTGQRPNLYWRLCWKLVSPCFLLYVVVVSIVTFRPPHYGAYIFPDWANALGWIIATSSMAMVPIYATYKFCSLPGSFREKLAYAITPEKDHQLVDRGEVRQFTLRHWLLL", "assay": "Displacement of [125I]PE2I from rat DAT"}, "Brain": {"tested_on": "Brain", "assay": "Drug uptake in cynomolgus monkey brain at 59 MBq after 13 mins", "type": "ADME, tissue-based, Macaca fascicularis", "conditions": "in vivo"}, "[2]": {"assay": "Ratio of drug uptake in cerebellum to caudate in cynomolgus monkey at 59 MBq after 105 mins", "type": "ADME, Macaca fascicularis", "conditions": "in vivo, 1.75 h"}, "[3]": {"assay": "Ratio of drug uptake in cerebellum to putamen in cynomolgus monkey at 59 MBq after 105 mins", "type": "ADME, Macaca fascicularis", "conditions": "in vivo, 1.75 h"}, "[4]": {"assay": "Ratio of drug uptake in cerebellum to caudate in cynomolgus monkey by GBR-12909 displacement assay", "design": "species or system Macaca fascicularis", "conditions": "in vivo"}, "[5]": {"assay": "Ratio of drug uptake in cerebellum to putamen in cynomolgus monkey by GBR-12909 displacement assay", "design": "species or system Macaca fascicularis", "conditions": "in vivo"}, "Plasma": {"tested_on": "Plasma", "assay": "Metabolic stability in cynomolgus monkey venous plasma assessed as compound recovery by radio-HPLC", "type": "ADME, cell-free, Macaca fascicularis"}}}
{"smiles": "COC(=O)[C@H]1[C@@H](c2ccc(C)cc2)C[C@@H]2CC[C@H]1N2C/C=C/I", "values": [{"measurement": "Ki", "setting": "[1]", "result": 16, "unit": "nM"}]}
{"smiles": "Cc1ccc([C@H]2C[C@@H]3CC[C@H]([C@H]2C(=O)OCC[18F])N3C/C=C/I)cc1", "values": [{"measurement": "SUV", "setting": "Brain", "result": 540, "unit": "%"}, {"measurement": "Ratio", "setting": "[2]", "result": 7.5}, {"measurement": "Ratio", "setting": "[3]", "result": 7.9}, {"measurement": "Ratio", "setting": "[4]", "result": 1.4}, {"measurement": "Ratio", "setting": "[5]", "result": 1.3}, {"measurement": "Stability", "setting": "Plasma", "result": 91, "unit": "%"}]}
{"smiles": "Cc1ccc([C@H]2C[C@@H]3CC[C@H]([C@H]2C(=O)OCCF)N3C/C=C/I)cc1", "values": [{"measurement": "Ki", "setting": "[1]", "result": 12, "unit": "nM"}]}
